Settings: Vibrating tube method

FC(F)=C(F)C(F)(F)F [hexafluoropropene]
Settings | mass density [kg/m3]
353.12 K, 2589.9 kPa, Fluid (supercritical or subcritical phases) | 239.58
353.12 K, 2605.1 kPa, Fluid (supercritical or subcritical phases) | 243.48
353.12 K, 2619.7 kPa, Fluid (supercritical or subcritical phases) | 247.37
353.12 K, 2635.2 kPa, Fluid (supercritical or subcritical phases) | 251.52
353.12 K, 2649.7 kPa, Fluid (supercritical or subcritical phases) | 255.58
353.12 K, 2670.4 kPa, Fluid (supercritical or subcritical phases) | 261.98
353.12 K, 2690 kPa, Fluid (supercritical or subcritical phases) | 268.46
353.12 K, 2702.3 kPa, Fluid (supercritical or subcritical phases) | 272.91
353.12 K, 2710.7 kPa, Fluid (supercritical or subcritical phases) | 275.88
353.12 K, 2718.3 kPa, Fluid (supercritical or subcritical phases) | 278.85
353.12 K, 2725 kPa, Fluid (supercritical or subcritical phases) | 281.55
353.12 K, 2731.2 kPa, Fluid (supercritical or subcritical phases) | 284.3
353.12 K, 2737.4 kPa, Fluid (supercritical or subcritical phases) | 286.74
353.12 K, 2744.8 kPa, Fluid (supercritical or subcritical phases) | 290.14
353.12 K, 2751.1 kPa, Fluid (supercritical or subcritical phases) | 293.08
353.12 K, 2757.6 kPa, Fluid (supercritical or subcritical phases) | 296.25
353.12 K, 2764.5 kPa, Fluid (supercritical or subcritical phases) | 299.88
353.12 K, 2771.7 kPa, Fluid (supercritical or subcritical phases) | 303.81
353.13 K, 2798.4 kPa, Liquid | 887.06
353.13 K, 2805.3 kPa, Liquid | 888.96
353.13 K, 2812.6 kPa, Liquid | 890.6
353.13 K, 2818.9 kPa, Liquid | 891.84
353.13 K, 2825.7 kPa, Liquid | 893.67
353.13 K, 2832.6 kPa, Liquid | 894.71
353.13 K, 2839.4 kPa, Liquid | 896.74
353.13 K, 2846 kPa, Liquid | 898.09
353.13 K, 2852.6 kPa, Liquid | 899.46
353.13 K, 2859.8 kPa, Liquid | 900.81
353.13 K, 2866.7 kPa, Liquid | 902.11
353.13 K, 2873.8 kPa, Liquid | 903.63
353.13 K, 2881 kPa, Liquid | 904.67
353.13 K, 2888.2 kPa, Liquid | 906.06
353.13 K, 2908.5 kPa, Liquid | 909.29
353.13 K, 2928.4 kPa, Liquid | 912.84
353.13 K, 2948.2 kPa, Liquid | 915.77
353.13 K, 2969.5 kPa, Liquid | 918.7
353.13 K, 2989.9 kPa, Liquid | 921.51
353.13 K, 3009.6 kPa, Liquid | 924.14
353.13 K, 3030.5 kPa, Liquid | 926.96
353.13 K, 3051.7 kPa, Liquid | 929.82
353.13 K, 3072.6 kPa, Liquid | 932.36
353.13 K, 3094.1 kPa, Liquid | 935.03
353.13 K, 3116.1 kPa, Liquid | 937.73
353.13 K, 3136.7 kPa, Liquid | 940.03
353.13 K, 3159.1 kPa, Liquid | 942.35
353.13 K, 3182.1 kPa, Liquid | 944.69
353.13 K, 3205.5 kPa, Liquid | 946.93
353.13 K, 3225.2 kPa, Liquid | 948.79
353.13 K, 3246.7 kPa, Liquid | 950.79
353.13 K, 3265.8 kPa, Liquid | 952.67
353.13 K, 3286.3 kPa, Liquid | 954.54
353.13 K, 3309.6 kPa, Liquid | 956.7
353.13 K, 3330.5 kPa, Liquid | 958.57
353.13 K, 3353 kPa, Liquid | 960.43
353.13 K, 3369.2 kPa, Liquid | 961.77
353.13 K, 3392.7 kPa, Liquid | 963.71
353.13 K, 3399 kPa, Liquid | 964.17
353.13 K, 3429.5 kPa, Liquid | 966.86
353.13 K, 3457.9 kPa, Liquid | 969.07
353.13 K, 3487.3 kPa, Liquid | 971.26
353.13 K, 3521.2 kPa, Liquid | 973.81
353.13 K, 3546.8 kPa, Liquid | 975.65
353.13 K, 3574.3 kPa, Liquid | 977.54
353.13 K, 3599.5 kPa, Liquid | 979.42
353.13 K, 3626.9 kPa, Liquid | 981.32
353.13 K, 3653.9 kPa, Liquid | 982.94
353.13 K, 3680.4 kPa, Liquid | 984.8
353.13 K, 3736 kPa, Liquid | 988.5
353.13 K, 3763.9 kPa, Liquid | 990.13
353.13 K, 3788.8 kPa, Liquid | 991.7
353.13 K, 3815.8 kPa, Liquid | 993.28
353.13 K, 3840.7 kPa, Liquid | 994.81
353.13 K, 3865.5 kPa, Liquid | 996.26
353.13 K, 3891.9 kPa, Liquid | 997.74
353.13 K, 3918.8 kPa, Liquid | 999.3
353.13 K, 3943.7 kPa, Liquid | 1000.71
353.13 K, 3971.8 kPa, Liquid | 1002.02
353.13 K, 3985.4 kPa, Liquid | 1002.96
353.13 K, 4027.5 kPa, Liquid | 1005.16
353.13 K, 4066.7 kPa, Liquid | 1007.14
353.13 K, 4105.8 kPa, Liquid | 1009.21
353.13 K, 4146.8 kPa, Liquid | 1011.34
353.13 K, 4185.8 kPa, Liquid | 1013.28
353.13 K, 4216 kPa, Liquid | 1014.76
353.13 K, 4257.8 kPa, Liquid | 1016.64
353.13 K, 4298.4 kPa, Liquid | 1018.66
353.13 K, 4335.1 kPa, Liquid | 1020.3
353.13 K, 4374.3 kPa, Liquid | 1022.01
353.13 K, 4415.3 kPa, Liquid | 1023.76
353.13 K, 4454.8 kPa, Liquid | 1025.55
353.13 K, 4494.4 kPa, Liquid | 1027.22
353.13 K, 4534 kPa, Liquid | 1028.89
353.13 K, 4574.1 kPa, Liquid | 1030.62
353.13 K, 4611.4 kPa, Liquid | 1032.18
353.13 K, 4650.8 kPa, Liquid | 1033.77
353.13 K, 4692 kPa, Liquid | 1035.33
353.13 K, 4731.2 kPa, Liquid | 1036.88
353.13 K, 4772.4 kPa, Liquid | 1038.52
353.13 K, 4813.3 kPa, Liquid | 1040.05
353.13 K, 4854.9 kPa, Liquid | 1041.63
353.13 K, 4892.5 kPa, Liquid | 1043.01
353.13 K, 4933.3 kPa, Liquid | 1044.53
353.13 K, 4970.7 kPa, Liquid | 1045.82
353.13 K, 5012.1 kPa, Liquid | 1047.29
353.13 K, 5052.5 kPa, Liquid | 1048.76
353.13 K, 5091.9 kPa, Liquid | 1050.11
353.13 K, 5130 kPa, Liquid | 1051.53
353.13 K, 5169.1 kPa, Liquid | 1052.89
353.13 K, 5208.1 kPa, Liquid | 1054.11
353.13 K, 5247 kPa, Liquid | 1055.36
353.13 K, 5287.6 kPa, Liquid | 1056.62
353.13 K, 5325.3 kPa, Liquid | 1057.82
353.13 K, 5365.1 kPa, Liquid | 1059.19
353.13 K, 5403.1 kPa, Liquid | 1060.48
353.13 K, 5442.6 kPa, Liquid | 1061.62
353.13 K, 5480.8 kPa, Liquid | 1062.93
353.13 K, 5559.8 kPa, Liquid | 1065.32
353.13 K, 5597.5 kPa, Liquid | 1066.51
353.13 K, 5634.9 kPa, Liquid | 1067.6
353.13 K, 5673 kPa, Liquid | 1068.78
353.13 K, 5711.7 kPa, Liquid | 1069.91
353.13 K, 5751 kPa, Liquid | 1071.01
353.13 K, 5788.5 kPa, Liquid | 1072.12
353.13 K, 5826.7 kPa, Liquid | 1073.17
353.13 K, 5865.4 kPa, Liquid | 1074.15
353.13 K, 5902.7 kPa, Liquid | 1075.33
353.13 K, 5941.8 kPa, Liquid | 1076.43
353.13 K, 5981.5 kPa, Liquid | 1077.54
353.13 K, 6019.6 kPa, Liquid | 1078.56
353.13 K, 6060.4 kPa, Liquid | 1079.62
353.13 K, 6101 kPa, Liquid | 1080.65
353.13 K, 6140.3 kPa, Liquid | 1081.81
353.13 K, 6177.9 kPa, Liquid | 1082.78
353.13 K, 6216.7 kPa, Liquid | 1083.8
